Experimental data: patent publication US11419806B2, “Prebiotic oral care methods using a saccharide” (Colgate-Palmolive Company, priority 2013, dated 2022)

Experiments:
Assay in all cases: Twenty-four hour optical density growth in BHI
Assay type in all cases: cell-based
Actinomyces naeslundii = details: A naeslundii
Procedure: (§1) The extent of growth of the tested bacteria in response to selected saccharides (myo-inositol, D-lactitol, D-turanose and N-acetyl-D-mannosamine) was investigated by setting up growth curves in a nutritionally rich medium (brain heart infusion broth (BHI), Oxoid), over 24 hours. Late exponential growth phase liquid cultures were prepared by transferring the respective bacterium from blood agar plates to BHI and overnight incubation at 37° C. in an anaerobic atmosphere for A. viscosus, V. parvula, F. nucleatum, P. gingivalis, P. intermedia, T. forsythia, A. naeslundii, and C. sputigena, and in a 5% CO2 environment for S. salivarius, S. sanguinis, S. mitis, A. actinomycetemcomitans, S. mutans, S. sobrinus and S. gordonii. Overnight cultures were transferred to BHI and adjusted to a concentration of 1×10^7 CFU/ml (colony forming units per ml) by measuring the optical density at 600 nm (OD600) (BioRad SmartSpec 3000). For each strain, 200 μl of the bacterial suspension was added to a 96-well plate containing 20 μl of the respective saccharides. Final concentrations of the saccharides were set to 5, 10, 20 and 25 μmol/ml. […] Plates were incubated as previously described.
(§2) For each combination of bacterium/saccharide, and for each of their respective controls (i.e. the particular bacterium in the nutritionally rich medium with no saccharide), the optical density was measured at 630 nm (OD630) at 0 h and 24 h (Thermo Scientific Multiskan Ascent). Additionally, the OD630 for combinations of bacterium/saccharides grown in a 5% CO2 environment were also measured every hour between 0 h and 9 h.
(§3) The experiment was carried out on three different days (thus providing 3 biological replicas) and on each day the experiment was carried out in quadruple (thus providing 4 technical replicas) for each combination of bacterium with saccharide and for each control. For each day and for each combination, the average (mean) of the values obtained (as detailed above) for the four technical replicas was calculated to provide a single value for each combination on each day. The values shown in Tables 5a,b to 6a,b, below, are the average (mean) of the three single values obtained for each combination of bacterium with saccharide.

Actinomyces viscosus = details: A viscosus
Procedure: as §1, §2, §3

[1] = test system: Aggregatibacter actinomycetemcomitans; details: A actinomycetemcomitans
Procedure: as §1, §2, §3

Capnocytophaga sputigena = details: C sputigena
Procedure: as §1, §2, §3

Fusobacterium nucleatum = details: F nucleatum
Procedure: as §1, §2, §3

Porphyromonas gingivalis = details: P gingivalis
Procedure: as §1, §2, §3

Prevotella intermedia = details: P intermedia
Procedure: as §1, §2, §3

S. sanguinis = test system: S. sanguinis
Procedure: as §1, §2, §3

Streptococcus gordonii = details: S gordonii
Procedure: as §1, §2, §3

Streptococcus mitis = details: S mitis
Procedure: as §1, §2, §3

Streptococcus mutans = details: S mutans
Procedure: as §1, §2, §3

Streptococcus salivarius = details: S salivarius
Procedure: as §1, §2, §3

Streptococcus sobrinus = details: S sobrinus
Procedure: as §1, §2, §3

Tannerella forsythia = details: T forsythia
Procedure: as §1, §2, §3

Veillonella parvula = details: V parvula
Procedure: as §1, §2, §3

For `O[C@H]1[C@H](O)[C@@H](O)[C@H](O)[C@@H](O)[C@H]1O` [Myo-Inositol, (1R,2R,3S,4S,5R,6S)-cyclohexane-1,2,3,4,5,6-hexol], the “extent of growth: maximal OD630 over 24 hr divided by maximal OD of control (control = 1)” value (Actinomyces naeslundii; 5 μmol/ml) was 1.0172, the “extent of growth: maximal OD630 over 24 hr divided by maximal OD of control (control = 1)” value (Actinomyces naeslundii; 10 μmol/ml) was 1.0190 and the “extent of growth: maximal OD630 over 24 hr divided by maximal OD of control (control = 1)” value (Actinomyces naeslundii; 20 μmol/ml) was 1.0051. The “extent of growth: maximal OD630 over 24 hr divided by maximal OD of control (control = 1)” value (Actinomyces naeslundii; 25 μmol/ml) was 1.0000, the “extent of growth: maximal OD630 over 24 hr divided by maximal OD of control (control = 1)” value (Actinomyces viscosus; 5 μmol/ml) was 0.8442 and the “extent of growth: maximal OD630 over 24 hr divided by maximal OD of control (control = 1)” value (Actinomyces viscosus; 10 μmol/ml) was 0.8574. For the same compound, the “extent of growth: maximal OD630 over 24 hr divided by maximal OD of control (control = 1)” value (Actinomyces viscosus; 20 μmol/ml) was 0.8079, the “extent of growth: maximal OD630 over 24 hr divided by maximal OD of control (control = 1)” value (Actinomyces viscosus; 25 μmol/ml) was 0.7647 and the “extent of growth: maximal OD630 over 24 hr divided by maximal OD of control (control = 1)” value ([1]; 5 μmol/ml) was 0.6977. For the same compound, the “extent of growth: maximal OD630 over 24 hr divided by maximal OD of control (control = 1)” value ([1]; 10 μmol/ml) was 0.7107, the “extent of growth: maximal OD630 over 24 hr divided by maximal OD of control (control = 1)” value ([1]; 20 μmol/ml) was 0.7396 and the “extent of growth: maximal OD630 over 24 hr divided by maximal OD of control (control = 1)” value ([1]; 25 μmol/ml) was 0.7361. For the same compound, the “extent of growth: maximal OD630 over 24 hr divided by maximal OD of control (control = 1)” value (Capnocytophaga sputigena; 5 μmol/ml) was 0.8701, the “extent of growth: maximal OD630 over 24 hr divided by maximal OD of control (control = 1)” value (Capnocytophaga sputigena; 10 μmol/ml) was 0.8749 and the “extent of growth: maximal OD630 over 24 hr divided by maximal OD of control (control = 1)” value (Capnocytophaga sputigena; 20 μmol/ml) was 0.8545. For the same compound, the “extent of growth: maximal OD630 over 24 hr divided by maximal OD of control (control = 1)” value (Capnocytophaga sputigena; 25 μmol/ml) was 0.8789, the “extent of growth: maximal OD630 over 24 hr divided by maximal OD of control (control = 1)” value (Fusobacterium nucleatum; 5 μmol/ml) was 0.9430 and the “extent of growth: maximal OD630 over 24 hr divided by maximal OD of control (control = 1)” value (Fusobacterium nucleatum; 10 μmol/ml) was 0.9489. The “extent of growth: maximal OD630 over 24 hr divided by maximal OD of control (control = 1)” value (Fusobacterium nucleatum; 20 μmol/ml) was 0.9512, the “extent of growth: maximal OD630 over 24 hr divided by maximal OD of control (control = 1)” value (Fusobacterium nucleatum; 25 μmol/ml) was 0.9518 and the “extent of growth: maximal OD630 over 24 hr divided by maximal OD of control (control = 1)” value (Porphyromonas gingivalis; 5 μmol/ml) was 1.0200. For the same compound, the “extent of growth: maximal OD630 over 24 hr divided by maximal OD of control (control = 1)” value (Porphyromonas gingivalis; 10 μmol/ml) was 1.0126, the “extent of growth: maximal OD630 over 24 hr divided by maximal OD of control (control = 1)” value (Porphyromonas gingivalis; 20 μmol/ml) was 0.9758 and the “extent of growth: maximal OD630 over 24 hr divided by maximal OD of control (control = 1)” value (Porphyromonas gingivalis; 25 μmol/ml) was 0.9855. For the same compound, the “extent of growth: maximal OD630 over 24 hr divided by maximal OD of control (control = 1)” value (Prevotella intermedia; 5 μmol/ml) was 0.9519, the “extent of growth: maximal OD630 over 24 hr divided by maximal OD of control (control = 1)” value (Prevotella intermedia; 10 μmol/ml) was 0.9564 and the “extent of growth: maximal OD630 over 24 hr divided by maximal OD of control (control = 1)” value (Prevotella intermedia; 20 μmol/ml) was 0.9230. The “extent of growth: maximal OD630 over 24 hr divided by maximal OD of control (control = 1)” value (Prevotella intermedia; 25 μmol/ml) was 0.9158, the “extent of growth: maximal OD630 over 24 hr divided by maximal OD of control (control = 1)” value (S. sanguinis; 5 μmol/ml) was 0.9429 and the “extent of growth: maximal OD630 over 24 hr divided by maximal OD of control (control = 1)” value (S. sanguinis; 10 μmol/ml) was 0.9536. The “extent of growth: maximal OD630 over 24 hr divided by maximal OD of control (control = 1)” value (S. sanguinis; 20 μmol/ml) was 0.8540, the “extent of growth: maximal OD630 over 24 hr divided by maximal OD of control (control = 1)” value (S. sanguinis; 25 μmol/ml) was 0.9077 and the “extent of growth: maximal OD630 over 24 hr divided by maximal OD of control (control = 1)” value (Streptococcus gordonii; 5 μmol/ml) was 0.9888. The “extent of growth: maximal OD630 over 24 hr divided by maximal OD of control (control = 1)” value (Streptococcus gordonii; 10 μmol/ml) was 0.9732, the “extent of growth: maximal OD630 over 24 hr divided by maximal OD of control (control = 1)” value (Streptococcus gordonii; 20 μmol/ml) was 0.9751 and the “extent of growth: maximal OD630 over 24 hr divided by maximal OD of control (control = 1)” value (Streptococcus gordonii; 25 μmol/ml) was 0.9954. For the same compound, the “extent of growth: maximal OD630 over 24 hr divided by maximal OD of control (control = 1)” value (Streptococcus mitis; 5 μmol/ml) was 0.9921, the “extent of growth: maximal OD630 over 24 hr divided by maximal OD of control (control = 1)” value (Streptococcus mitis; 10 μmol/ml) was 0.9622 and the “extent of growth: maximal OD630 over 24 hr divided by maximal OD of control (control = 1)” value (Streptococcus mitis; 20 μmol/ml) was 0.8975. For the same compound, the “extent of growth: maximal OD630 over 24 hr divided by maximal OD of control (control = 1)” value (Streptococcus mitis; 25 μmol/ml) was 0.8423, the “extent of growth: maximal OD630 over 24 hr divided by maximal OD of control (control = 1)” value (Streptococcus mutans; 5 μmol/ml) was 1.1065 and the “extent of growth: maximal OD630 over 24 hr divided by maximal OD of control (control = 1)” value (Streptococcus mutans; 10 μmol/ml) was 1.0553. The “extent of growth: maximal OD630 over 24 hr divided by maximal OD of control (control = 1)” value (Streptococcus mutans; 20 μmol/ml) was 0.9645, the “extent of growth: maximal OD630 over 24 hr divided by maximal OD of control (control = 1)” value (Streptococcus mutans; 25 μmol/ml) was 0.9449 and the “extent of growth: maximal OD630 over 24 hr divided by maximal OD of control (control = 1)” value (Streptococcus salivarius; 5 μmol/ml) was 0.9359. The “extent of growth: maximal OD630 over 24 hr divided by maximal OD of control (control = 1)” value (Streptococcus salivarius; 10 μmol/ml) was 0.9395, the “extent of growth: maximal OD630 over 24 hr divided by maximal OD of control (control = 1)” value (Streptococcus salivarius; 20 μmol/ml) was 0.9136 and the “extent of growth: maximal OD630 over 24 hr divided by maximal OD of control (control = 1)” value (Streptococcus salivarius; 25 μmol/ml) was 0.8905. For the same compound, the “extent of growth: maximal OD630 over 24 hr divided by maximal OD of control (control = 1)” value (Streptococcus sobrinus; 5 μmol/ml) was 0.9301, the “extent of growth: maximal OD630 over 24 hr divided by maximal OD of control (control = 1)” value (Streptococcus sobrinus; 10 μmol/ml) was 0.9360 and the “extent of growth: maximal OD630 over 24 hr divided by maximal OD of control (control = 1)” value (Streptococcus sobrinus; 20 μmol/ml) was 0.9087. For the same compound, the “extent of growth: maximal OD630 over 24 hr divided by maximal OD of control (control = 1)” value (Streptococcus sobrinus; 25 μmol/ml) was 0.9224, the “extent of growth: maximal OD630 over 24 hr divided by maximal OD of control (control = 1)” value (Tannerella forsythia; 5 μmol/ml) was 0.9323 and the “extent of growth: maximal OD630 over 24 hr divided by maximal OD of control (control = 1)” value (Tannerella forsythia; 10 μmol/ml) was 0.9359. For the same compound, the “extent of growth: maximal OD630 over 24 hr divided by maximal OD of control (control = 1)” value (Tannerella forsythia; 20 μmol/ml) was 0.9286, the “extent of growth: maximal OD630 over 24 hr divided by maximal OD of control (control = 1)” value (Tannerella forsythia; 25 μmol/ml) was 0.9460 and the “extent of growth: maximal OD630 over 24 hr divided by maximal OD of control (control = 1)” value (Veillonella parvula; 5 μmol/ml) was 0.9050. For the same compound, the “extent of growth: maximal OD630 over 24 hr divided by maximal OD of control (control = 1)” value (Veillonella parvula; 10 μmol/ml) was 0.9049, the “extent of growth: maximal OD630 over 24 hr divided by maximal OD of control (control = 1)” value (Veillonella parvula; 20 μmol/ml) was 0.8987 and the “extent of growth: maximal OD630 over 24 hr divided by maximal OD of control (control = 1)” value (Veillonella parvula; 25 μmol/ml) was 0.8933.
